These results are taken from patent publication US12516056B2, “Compounds for inhibition of janus kinase 1” (MANKIND PHARMA LTD., priority 2019, dated 2026).

A value given as a limit tells only on which side of the number the result lay.

Assay [1] has as its target T1, Recombinant JAK1 (Homo sapiens, UniProt P23458).
T1 construct: purchased Carna Biosciences
The experiment in a line: JAK biochemical assay (LANCE Ultra TR-FRET), JAK1. Conditions: recombinant JAK1, TR-FRET; read-out: Biochemical Assay (μM) JAK1. Put shortly:
(§1)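 % inhibition relative to vehicle was derived from TR-FRET signal proportional to ULight-substrate phosphorylation. Reactions used recombinant kinase in HEPES pH 7.5 buffer containing EGTA, MgCl2, DTT and Tween-20.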
In general terms: TR-FRET usually uses a lanthanide donor and a delayed reading to cut background.

Assay [2] concerns the target T2, Recombinant JAK2 (Homo sapiens, UniProt O60674).
T2 construct: purchased Carna Biosciences
The experiment in a line: JAK biochemical assay (LANCE Ultra TR-FRET), JAK2. Particulars: recombinant JAK2, TR-FRET; read-out: Biochemical Assay (μM) JAK2. Put shortly:
as §1

The target of assay [3] is T3, Recombinant JAK3 (Homo sapiens, UniProt P52333).
T3 construct: purchased Carna Biosciences
T3 sequence (P52333 1-1124): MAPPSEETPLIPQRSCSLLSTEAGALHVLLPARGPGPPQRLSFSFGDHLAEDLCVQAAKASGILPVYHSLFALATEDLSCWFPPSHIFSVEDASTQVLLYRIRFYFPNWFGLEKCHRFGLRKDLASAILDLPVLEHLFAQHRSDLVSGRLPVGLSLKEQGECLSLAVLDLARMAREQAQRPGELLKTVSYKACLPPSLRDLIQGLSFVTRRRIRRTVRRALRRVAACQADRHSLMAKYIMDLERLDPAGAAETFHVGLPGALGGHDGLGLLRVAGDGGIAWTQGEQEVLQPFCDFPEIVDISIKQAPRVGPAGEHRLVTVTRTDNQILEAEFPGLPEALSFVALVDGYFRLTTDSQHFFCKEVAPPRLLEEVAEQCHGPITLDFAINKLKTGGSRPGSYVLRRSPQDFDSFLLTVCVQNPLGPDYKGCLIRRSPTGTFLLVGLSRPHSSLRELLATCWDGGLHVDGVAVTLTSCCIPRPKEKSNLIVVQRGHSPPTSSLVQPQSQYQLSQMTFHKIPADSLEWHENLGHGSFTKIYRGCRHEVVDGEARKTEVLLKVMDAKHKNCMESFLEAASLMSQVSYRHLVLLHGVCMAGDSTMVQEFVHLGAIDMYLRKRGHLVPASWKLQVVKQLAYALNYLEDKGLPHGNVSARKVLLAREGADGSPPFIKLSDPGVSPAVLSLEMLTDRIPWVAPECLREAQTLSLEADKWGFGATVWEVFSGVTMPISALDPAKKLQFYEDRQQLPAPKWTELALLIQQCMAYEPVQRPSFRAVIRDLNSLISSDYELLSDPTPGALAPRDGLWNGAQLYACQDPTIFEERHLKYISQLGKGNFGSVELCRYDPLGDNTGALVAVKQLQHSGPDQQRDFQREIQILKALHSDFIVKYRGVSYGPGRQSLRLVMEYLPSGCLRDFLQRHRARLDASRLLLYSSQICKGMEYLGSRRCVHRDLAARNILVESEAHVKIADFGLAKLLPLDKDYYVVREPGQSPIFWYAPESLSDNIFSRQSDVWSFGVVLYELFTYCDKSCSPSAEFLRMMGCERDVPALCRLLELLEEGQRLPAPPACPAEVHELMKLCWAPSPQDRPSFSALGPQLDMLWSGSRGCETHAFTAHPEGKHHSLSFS
The experiment in a line: JAK biochemical assay (LANCE Ultra TR-FRET), JAK3. Particulars: recombinant JAK3, TR-FRET; read-out: Biochemical Assay (μM) JAK3. The essentials:
as §1

The target of assay [4] is T4, Recombinant TYK2 (Homo sapiens, UniProt P29597).
T4 construct: purchased Carna Biosciences
T4 sequence (P29597 whole entry): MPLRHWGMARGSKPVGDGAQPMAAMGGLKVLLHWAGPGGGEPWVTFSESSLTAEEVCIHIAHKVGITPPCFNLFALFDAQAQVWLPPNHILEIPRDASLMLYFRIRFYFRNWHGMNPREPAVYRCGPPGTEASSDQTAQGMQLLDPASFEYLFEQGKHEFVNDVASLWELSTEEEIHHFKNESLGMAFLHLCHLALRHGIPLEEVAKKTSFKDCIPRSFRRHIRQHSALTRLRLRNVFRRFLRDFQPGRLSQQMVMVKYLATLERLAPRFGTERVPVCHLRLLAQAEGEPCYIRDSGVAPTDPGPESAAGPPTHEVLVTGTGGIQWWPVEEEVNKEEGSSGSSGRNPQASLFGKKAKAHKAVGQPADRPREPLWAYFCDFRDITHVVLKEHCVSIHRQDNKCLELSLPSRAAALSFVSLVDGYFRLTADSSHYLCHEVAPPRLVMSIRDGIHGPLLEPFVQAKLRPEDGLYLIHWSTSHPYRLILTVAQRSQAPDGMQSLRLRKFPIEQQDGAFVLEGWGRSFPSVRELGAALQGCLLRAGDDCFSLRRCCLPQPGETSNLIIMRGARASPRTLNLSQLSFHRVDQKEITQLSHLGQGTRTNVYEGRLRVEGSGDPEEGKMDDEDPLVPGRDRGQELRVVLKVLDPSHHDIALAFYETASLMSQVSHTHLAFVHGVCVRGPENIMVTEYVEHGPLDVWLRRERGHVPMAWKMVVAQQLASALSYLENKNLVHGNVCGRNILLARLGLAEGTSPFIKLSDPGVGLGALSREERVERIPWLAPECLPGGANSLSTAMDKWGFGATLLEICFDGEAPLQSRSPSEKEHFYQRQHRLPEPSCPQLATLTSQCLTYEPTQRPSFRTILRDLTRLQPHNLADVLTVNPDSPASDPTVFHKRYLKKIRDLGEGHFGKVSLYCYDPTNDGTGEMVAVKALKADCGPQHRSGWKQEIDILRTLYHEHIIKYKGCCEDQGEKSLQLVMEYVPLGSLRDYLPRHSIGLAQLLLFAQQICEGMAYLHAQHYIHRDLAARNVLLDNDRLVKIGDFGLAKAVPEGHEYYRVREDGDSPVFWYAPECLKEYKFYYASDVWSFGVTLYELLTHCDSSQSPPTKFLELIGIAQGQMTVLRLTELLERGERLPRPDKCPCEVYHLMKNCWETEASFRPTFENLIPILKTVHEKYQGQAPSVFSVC
In words: JAK biochemical assay (LANCE Ultra TR-FRET), TYK2. Particulars: recombinant TYK2, TR-FRET; read-out: Biochemical Assay (μM) TYK2. Put shortly:
as §1

The test system of assay [5] is STAT3 phosphorylation by IL-6 in TF-1 cells. The experiment in a line: JAK cellular assay: STAT3 phosphorylation by IL-6 in TF-1 cells (HTRF). The format is cell-based. Particulars: Homo sapiens, TF-1, TF-1 cells, IL-6 30 ng/ml, pSTAT3 HTRF; read-out: Cell Based Assay (μM) TF-1/IL-6/pSTAT3. Put shortly: (§2)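 Phospho-STAT3 (IL-6, 30 ng/ml) and phospho-STAT5 (GMCSF, 5 ng/ml) read by HTRF in lysates after 20 min cytokine exposure, minus unstimulated-cell background. Cells were serum-starved overnight, plated at 120,000/well, given compound 30 min at 37 °C beforehand; DMSO 0.2% final.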

For assay [6], the system named is STAT5 phosphorylation by GMCSF in TF-1 cells. In words: JAK cellular assay: STAT5 phosphorylation by GMCSF in TF-1 cells (HTRF). The format is cell-based. Conditions: Homo sapiens; TF-1 cells, GMCSF 5 ng/ml, pSTAT5 HTRF; read-out: Cell Based Assay (μM) TF-1/GMCSF/pSTAT5. The essentials: as §2

T1 sequence (P23458 whole entry): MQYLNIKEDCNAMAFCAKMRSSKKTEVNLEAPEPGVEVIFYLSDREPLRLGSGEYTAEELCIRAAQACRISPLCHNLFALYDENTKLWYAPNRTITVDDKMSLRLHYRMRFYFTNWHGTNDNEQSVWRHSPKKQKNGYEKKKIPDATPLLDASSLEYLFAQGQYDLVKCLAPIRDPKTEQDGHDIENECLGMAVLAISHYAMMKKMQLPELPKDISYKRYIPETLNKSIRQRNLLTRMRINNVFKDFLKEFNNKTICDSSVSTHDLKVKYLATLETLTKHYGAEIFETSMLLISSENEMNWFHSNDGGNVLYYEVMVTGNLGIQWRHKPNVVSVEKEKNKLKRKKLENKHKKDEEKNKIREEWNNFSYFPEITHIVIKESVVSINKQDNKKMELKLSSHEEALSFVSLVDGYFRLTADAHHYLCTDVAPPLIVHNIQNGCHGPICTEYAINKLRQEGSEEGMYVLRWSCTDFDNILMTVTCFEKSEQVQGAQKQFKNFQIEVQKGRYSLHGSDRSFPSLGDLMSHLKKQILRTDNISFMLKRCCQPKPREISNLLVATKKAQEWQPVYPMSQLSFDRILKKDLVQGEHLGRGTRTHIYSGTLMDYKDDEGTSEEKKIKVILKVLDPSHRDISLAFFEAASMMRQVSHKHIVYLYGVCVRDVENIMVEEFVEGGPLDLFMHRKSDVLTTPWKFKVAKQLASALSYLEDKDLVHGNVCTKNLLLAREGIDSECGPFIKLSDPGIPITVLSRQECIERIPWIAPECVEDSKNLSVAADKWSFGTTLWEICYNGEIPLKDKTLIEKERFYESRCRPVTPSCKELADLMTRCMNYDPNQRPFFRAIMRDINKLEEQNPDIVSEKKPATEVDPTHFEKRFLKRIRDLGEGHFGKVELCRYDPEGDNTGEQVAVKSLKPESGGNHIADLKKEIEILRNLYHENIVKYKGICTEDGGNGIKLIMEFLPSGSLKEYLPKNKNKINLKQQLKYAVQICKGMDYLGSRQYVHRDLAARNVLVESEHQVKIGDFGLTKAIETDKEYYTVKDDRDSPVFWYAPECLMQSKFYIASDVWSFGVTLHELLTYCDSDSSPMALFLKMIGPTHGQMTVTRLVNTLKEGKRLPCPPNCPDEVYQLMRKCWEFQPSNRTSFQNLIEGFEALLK
T2 sequence (O60674 whole entry): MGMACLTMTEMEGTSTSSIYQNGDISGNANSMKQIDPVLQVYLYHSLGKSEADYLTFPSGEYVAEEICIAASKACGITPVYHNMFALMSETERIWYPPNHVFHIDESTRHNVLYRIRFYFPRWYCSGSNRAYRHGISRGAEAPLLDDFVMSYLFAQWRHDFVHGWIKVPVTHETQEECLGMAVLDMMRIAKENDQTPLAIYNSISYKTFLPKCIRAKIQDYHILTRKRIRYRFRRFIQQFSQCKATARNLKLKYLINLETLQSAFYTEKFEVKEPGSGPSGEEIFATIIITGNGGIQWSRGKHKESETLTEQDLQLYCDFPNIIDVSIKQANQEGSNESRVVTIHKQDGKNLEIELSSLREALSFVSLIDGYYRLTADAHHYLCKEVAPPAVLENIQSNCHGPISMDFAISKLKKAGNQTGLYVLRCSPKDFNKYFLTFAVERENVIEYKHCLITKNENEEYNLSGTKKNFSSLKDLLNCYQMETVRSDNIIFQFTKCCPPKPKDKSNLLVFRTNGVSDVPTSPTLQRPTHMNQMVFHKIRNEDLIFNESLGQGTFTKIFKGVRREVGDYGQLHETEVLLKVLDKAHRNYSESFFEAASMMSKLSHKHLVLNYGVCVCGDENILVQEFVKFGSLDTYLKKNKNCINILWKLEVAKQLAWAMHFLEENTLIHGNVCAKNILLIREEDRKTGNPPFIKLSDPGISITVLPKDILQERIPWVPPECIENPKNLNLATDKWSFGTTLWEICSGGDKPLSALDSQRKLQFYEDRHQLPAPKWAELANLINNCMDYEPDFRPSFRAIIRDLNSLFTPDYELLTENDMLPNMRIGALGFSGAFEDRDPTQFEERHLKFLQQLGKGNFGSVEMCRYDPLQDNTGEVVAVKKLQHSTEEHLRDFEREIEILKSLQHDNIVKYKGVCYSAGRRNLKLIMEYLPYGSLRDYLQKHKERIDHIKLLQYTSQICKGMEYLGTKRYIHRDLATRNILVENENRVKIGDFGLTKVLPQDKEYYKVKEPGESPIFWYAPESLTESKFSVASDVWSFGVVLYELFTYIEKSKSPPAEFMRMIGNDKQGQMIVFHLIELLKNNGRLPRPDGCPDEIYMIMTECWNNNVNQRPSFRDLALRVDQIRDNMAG

`OC(c1ccc(-n2cc(-c3ccnc4[nH]cnc34)cn2)nc1)(C1CCNCC1)C(F)(F)F` (stereo not drawn) [Example 1135, 1-(6-(4-(3H-imidazo[4,5-b]pyridin-7-yl)-1H-pyrazol-1-yl)pyridin-3-yl)-2,2,2-trifluoro-1-(piperidin-4-yl)ethan-1-ol]: the IC50 in assay [1] was below 0.1 µM; in assay [2], below 0.1 µM; in assay [3], below 0.1 µM; in assay [4], below 0.1 µM; in assay [5], above 1 µM; in assay [6], above 10 µM.

Turning to `N#CC(c1ccc(-n2cc(-c3ccnc4[nH]cnc34)cn2)cc1)N1CCOCC1` (stereo not drawn) [Example 1101, 2-(4-(4-(3H-imidazo[4,5-b]pyridin-7-yl)-1H-pyrazol-1-yl)phenyl)-2-morpholinoacetonitrile], the IC50 in assay [1] was above 0.5 µM; in assay [2], above 0.5 µM; in assay [3] it was above 1 µM; in assay [4], above 10 µM; in assay [5], above 10 µM; in assay [6] it was above 10 µM.

As to `CCN1CC(C(O)(c2ccc(-n3cc(-c4ccnc5[nH]cnc45)cn3)nc2)C(F)(F)F)C1` (stereo not drawn) [Example 1239, 1-(6-(4-(3H-imidazo[4,5-b]pyridin-7-yl)-1H-pyrazol-1-yl)pyridin-3-yl)-1-(1-ethylazetidin-3-yl)-2,2,2-trifluoroethanol], the IC50 in assay [1] was found to be 0.006 µM; in assay [2], 0.056 µM; in assay [3], 0.023 µM; in assay [4], 0.06 µM; in assay [5], 0.05 µM; in assay [6] it was 0.26 µM.

In the case of `N#CC1CCN(C(=O)n2cc(-c3ccnc4[nH]c(=O)[nH]c34)cn2)C1` (stereo not drawn) [Example 1055, 1-(4-(2-oxo-2,3-dihydro-1H-imidazo[4,5-b]pyridin-7-yl)-1H-pyrazole-1-carbonyl)pyrrolidine-3-carbonitrile], the IC50 was above 1 µM in assay [1]; below 0.5 µM in assay [2]; above 1 µM in assay [3]; above 0.5 µM in assay [4]; above 10 µM in assay [5]; above 10 µM in assay [6].

For the molecule `O=C(NCC(F)(F)F)n1cc(-c2ccnc3[nH]c(-c4ccccc4)nc23)cn1` [Example 1094, N-(2,2,2-trifluoroethyl)-4-(2-phenyl-3H-imidazo[4,5-b]pyridin-7-yl)-1H-pyrazole-1-carboxamide], the IC50 in assay [1] is below 0.5 µM; in assay [2] it was below 0.5 µM; in assay [3] it was below 0.5 µM; in assay [4], below 0.5 µM; in assay [5], above 1 µM; in assay [6], above 1 µM.

Turning to `N#CCOC(c1ccc(-n2cc(-c3ccnc4[nH]cnc34)cn2)nc1)C(F)(F)F` (stereo not drawn) [Example 1157, 2-(1-(6-(4-(3H-imidazo[4,5-b]pyridin-7-yl)-1H-pyrazol-1-yl)pyridin-3-yl)-2,2,2-trifluoroethoxy)acetonitrile], the IC50 in assay [1] was below 0.1 µM; in assay [2], below 0.1 µM; in assay [3] it was below 0.1 µM; in assay [4] it was above 0.5 µM; in assay [5] it was below 1 µM; in assay [6], above 10 µM.

On to `OCC(Cc1ccc(-n2cc(-c3ccnc4[nH]cnc34)cn2)nc1)C(F)(F)F` (stereo not drawn) [Example 1191, 3-(6-(4-(3H-imidazo[4,5-b]pyridin-7-yl)-1H-pyrazol-1-yl)pyridin-3-yl)-2-(trifluoromethyl)propan-1-ol], for which the IC50 in assay [1] was below 0.1 µM; in assay [2], below 0.1 µM; in assay [3] it was below 0.1 µM; in assay [4], above 1 µM; in assay [5], above 1 µM; in assay [6], above 1 µM.

As to `N#CC(c1ccc(-n2cc(-c3ccnc4[nH]cnc34)cn2)nc1)N1CC(F)(F)C1` (stereo not drawn) [Example 1111, 2-(6-(4-(3H-imidazo[4,5-b]pyridin-7-yl)-1H-pyrazol-1-yl)pyridin-3-yl)-2-(3,3-difluoroazetidin-1-yl)acetonitrile], the IC50 in assay [1] is below 0.5 µM; in assay [2] it was above 0.5 µM; in assay [3] it was below 0.5 µM; in assay [4], above 10 µM; in assay [5] it was above 10 µM; in assay [6] it was above 10 µM.

Consider `N#CC1CC(NC(=O)n2cc(-c3ccnc4[nH]c(=O)[nH]c34)cn2)C1` (stereo not drawn) [Example 1056, N-(3-cyanocyclobutyl)-4-(2,3-dihydro-2-oxo-1H-imidazo[4,5-b]pyridin-7-yl)-1H-Pyrazole-1-carboxamide], for which the IC50 in assay [1] is below 0.5 µM; in assay [2], below 0.5 µM; in assay [3], below 0.5 µM; in assay [4], above 0.5 µM; in assay [5] it was above 10 µM; in assay [6], above 10 µM.

In the case of `CC(F)(c1ccc(-n2cc(-c3ccnc4[nH]cnc34)cn2)nc1)C(F)(F)F` (stereo not drawn) [Example 1128, 7-(1-(5-(1,1,1,2-tetrafluoropropan-2-yl)pyridin-2-yl)-1H-pyrazol-4-yl)-3H-imidazo[4,5-b]pyridine], the IC50 in assay [1] was below 0.1 µM; in assay [2], above 0.5 µM; in assay [3], above 0.5 µM; in assay [4] it was above 1 µM; in assay [5] it was above 1 µM; in assay [6], above 10 µM.

Consider `FC(F)(F)C(OCCNC1CC1)c1ccc(-n2cc(-c3ccnc4[nH]cnc34)cn2)nc1` (stereo not drawn) [Example 1197, N-(2-(1-(6-(4-(3H-imidazo[4,5-b]pyridin-7-yl)-1H-pyrazol-1-yl)pyridin-3-yl)-2,2,2-trifluoroethoxy)ethyl)cyclopropanamine], for which the IC50 is below 0.1 µM in assay [1]; below 0.1 µM in assay [2]; below 0.1 µM in assay [3]; above 0.5 µM in assay [4]; above 0.3 µM in assay [5]; above 1 µM in assay [6].

As to `CC(c1ccc(-n2cc(-c3ccnc4[nH]cnc34)cn2)nc1)S(C)(=O)=O` (stereo not drawn) [Example 1158, 7-(1-(5-(1-(methylsulfonyl)ethyl)pyridin-2-yl)-1H-pyrazol-4-yl)-3H-imidazo[4,5-b]pyridine], the IC50 in assay [1] is below 0.1 µM; in assay [2], above 0.1 µM; in assay [3], above 0.1 µM; in assay [4], above 1 µM; in assay [5], above 1 µM; in assay [6], above 1 µM.

On to `OC(Cc1ccc(-n2cc(-c3ccnc4[nH]cnc34)cn2)nc1)C(F)(F)F` (stereo not drawn) [Example 1183, 3-(6-(4-(3H-imidazo[4,5-b]pyridin-7-yl)-1H-pyrazol-1-yl)pyridin-3-yl)-1,1,1-trifluoropropan-2-ol], for which the IC50 was above 0.1 µM in assay [1]; above 0.5 µM in assay [2]; above 0.1 µM in assay [3]; above 1 µM in assay [4]; 1 µM in assay [5]; above 1 µM in assay [6].

Regarding `N#CC1CCN(C(=O)n2cc(-c3ccnc4[nH]cnc34)cn2)CC1` [Example 1067, 1-(4-(3H-imidazo[4,5-b]pyridin-7-yl)-1H-pyrazole-1-carbonyl)piperidine-4-carbonitrile], the IC50 is above 1 µM in assay [1]; above 0.5 µM in assay [2]; above 0.5 µM in assay [3]; above 10 µM in assay [4]; above 10 µM in assay [5]; above 10 µM in assay [6].

For the molecule `c1cc(-c2cnn(Cc3cnco3)c2)c2nc[nH]c2n1` [Example 1077, 7-(1-((oxazol-5-yl)methyl)-1H-pyrazol-4-yl)-3H-imidazo[4,5-b]pyridine], the IC50 in assay [1] is above 1 µM; in assay [2], above 1 µM; in assay [3] it was above 1 µM; in assay [4] it was above 10 µM; in assay [5], above 10 µM; in assay [6] it was above 10 µM.
